Like-named read-outs stand apart in the source and are kept apart here.
Columns and labels:
[1] = pKa determination by automated spectrophotometric titration; format: physicochemical; details: 0.1 M KCl solution
[2] = iron (III) affinity constants and pFe3+ by spectrophotometric titration; format: physicochemical; details: for Log β1 / Log β2 / Log β3: DMSO: KCl (0.1 M) = 1:1.5 (v/v); for pFe^3+: calculated from Log β values obtained in DMSO: KCl (0.1 M) = 1:1.5 (v/v)
MAO-B = target: T1, MAO-B (Homo sapiens, UniProt P27338); assay: hMAO-B inhibition assay; format: biochemical; details: hMAO-B, 100 nM; read-out: Inhibitory rate (%, 100 nM)
T1 construct: purchased Sigma-Aldrich
T1 sequence (P27338 1-520): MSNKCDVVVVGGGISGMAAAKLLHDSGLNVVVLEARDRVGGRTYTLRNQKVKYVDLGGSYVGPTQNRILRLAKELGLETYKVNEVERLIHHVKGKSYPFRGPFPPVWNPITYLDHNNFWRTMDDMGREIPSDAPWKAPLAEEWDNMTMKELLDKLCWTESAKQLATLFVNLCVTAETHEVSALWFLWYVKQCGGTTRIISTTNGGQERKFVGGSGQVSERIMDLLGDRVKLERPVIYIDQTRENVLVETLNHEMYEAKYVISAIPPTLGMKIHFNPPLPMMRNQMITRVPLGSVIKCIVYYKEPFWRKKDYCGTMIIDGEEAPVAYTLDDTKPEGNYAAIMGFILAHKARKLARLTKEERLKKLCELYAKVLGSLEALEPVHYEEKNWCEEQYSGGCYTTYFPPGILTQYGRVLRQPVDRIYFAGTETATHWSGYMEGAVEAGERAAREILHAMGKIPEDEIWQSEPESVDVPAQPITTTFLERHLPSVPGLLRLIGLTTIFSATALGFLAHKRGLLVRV
Method: The reagents and enzymes (Human MAO-B and Human MAO-A) applied in this experiment were purchased from Sigma-Aldrich. According to the manuals, all components (substrate solution and enzyme solution) are diluted and placed aside for use. The detailed process has been mentioned in our early work[34].

| Structure (SMILES) | pKa ([1]; read-out: pKa1) | pKa ([1]; read-out: pKa2) | Log β1 [2] | Log β2 [2] | Log β3 [2] | pFe^3+ [2] | inhibition at 0.1 µM (MAO-B) | melting point |
| --- | --- | --- | --- | --- | --- | --- | --- | --- |
| Cc1ccc2c(=O)c(C(=O)NCCn3ccc(=O)c(O)c3C)coc2c1 [Compound 8b, N-(2–(3-hydroxy-2-methyl-4-oxopyridin-1(4H)-yl)ethyl)-7-methyl-4-oxo-4H-chromene-3-carboxamide] | 3.32 | 9.58 | 13.74 | 25.04 | 34.36 | 18.35 | 35.79 ± 0.2% | 270 to 272 °C |
| COc1ccc2occ(C(=O)NCCn3ccc(=O)c(O)c3C)c(=O)c2c1 [Compound 8e, N-(2–(3-hydroxy-2-methyl-4-oxopyridin-1(4H)-yl)ethyl)-6-methoxy-4-oxo-4H-chromene-3-carboxamide] | 3.18 | 9.67 | 13.67 | 25.38 | 35.37 | 19.08 | 34.3 ± 2.2% | 260 to 262 °C |
| Cc1c(O)c(=O)ccn1CCNC(=O)c1coc2cc(OCc3ccccc3)ccc2c1=O [Compound 15a, 7-(Benzyloxy)-N-(2–(3-hydroxy-2-methyl-4-oxopyridin-1(4H)-yl)ethyl)-4-oxo-4H-chromene-3-carboxamide] | 3.3 | 9.59 | 13.77 | 24.72 | 32.17 | 16.45 | 39 ± 1.1% | 225 to 227 °C |
| Cc1cccc(COc2ccc3c(=O)c(C(=O)NCCn4ccc(=O)c(O)c4C)coc3c2)c1 [Compound 15b, N-(2–(3-hydroxy-2-methyl-4-oxopyridin-1(4H)-yl)ethyl)-7-((3-methylbenzyl)oxy)-4-oxo-4H-chromene-3-carboxamide] | 3.06 | 9.73 | 13.64 | 25.57 | 34.21 | 17.80 | 39.1 ± 1.1% | 238 to 240 °C |
| Cc1ccc(COc2ccc3c(=O)c(C(=O)NCCn4ccc(=O)c(O)c4C)coc3c2)cc1 [Compound 15c, N-(2–(3-hydroxy-2-methyl-4-oxopyridin-1(4H)-yl)ethyl)-7-((4-methylbenzyl)oxy)-4-oxo-4H-chromene-3-carboxamide] | 3.19 | 9.34 | 13.40 | 23.16 | 31.01 | 15.87 | 38.7 ± 0.5% | 234 to 236 °C |

Continued, values first:

| pKa ([1]; read-out: pKa1) | pKa ([1]; read-out: pKa2) | Log β1 [2] | Log β2 [2] | Log β3 [2] | pFe^3+ [2] | inhibition at 0.1 µM (MAO-B) | melting point | Structure (SMILES) |
| --- | --- | --- | --- | --- | --- | --- | --- | --- |
| 3.36 | 9.52 | 13.50 | 25.31 | 34.85 | 19.01 | 38.5 ± 1.4% | 237 to 239 °C | Cc1c(O)c(=O)ccn1CCNC(=O)c1coc2cc(OCc3cccc(F)c3)ccc2c1=O [Compound 15d, 7-((3-Fluorobenzyl)oxy)-N-(2–(3-hydroxy-2-methyl-4-oxopyridin-1(4H)-yl)ethyl)-4-oxo-4H-chromene-3-carboxamide] |
| 3.25 | 9.56 | 13.82 | 24.02 | 31.70 | 16.00 | 39.1 ± 0.5% | 241 to 243 °C | Cc1c(O)c(=O)ccn1CCNC(=O)c1coc2cc(OCc3ccc(Cl)cc3)ccc2c1=O [Compound 15g, 7-((4-Chlorobenzyl)oxy)-N-(2–(3-hydroxy-2-methyl-4-oxopyridin-1(4H)-yl)ethyl)-4-oxo-4H-chromene-3-carboxamide] |
| 2.56 | 9.59 | 12.87 | 24.73 | 33.36 | 17.34 | 30.1 ± 3.7% | 134 to 136 °C | Cc1ccc(COc2ccc3c(=O)c(CNCCn4ccc(=O)c(O)c4C)coc3c2)cc1 [Compound 17h, 3-Hydroxy-2-methyl-1–(2-(((7-((4-methylbenzyl)oxy)-4-oxo-4H-chromen-3-yl)methyl)amino)ethyl)pyridin-4(1H)-one] |

Reference: paper PMC9762789, “Chromone-based monoamine oxidase B inhibitor with potential iron-chelating activity for the treatment of Alzheimer’s disease” (Journal of Enzyme Inhibition and Medicinal Chemistry, 2022)
